Measurements reported in patent publication US20090232917A1, “COMPOSITION FOR RELIEVING SUBJECTIVE SYMPTOMS OF FATIGUE” (Kyowa Hakko Kogyo Co., Ltd., priority 2005, published 2009).

Test system: normal subjects (subjective symptoms of fatigue)
Assay: Test Example 1: subjective symptoms of fatigue by visual analogue scale (VAS) method, tablets for 3 weeks
Type: in vivo, human
Details: 6 tablets of Example 1 per day for 3 weeks
Protocol: A test was carried out as follows. […] Evaluation was carried out in terms of the subjective symptoms of fatigue in the test subjects at the start and completion of the test using a visual analogue scale (VAS) method.
Specifically, each end of the segment has a criterion of expression. Referring to FIG. 1 or 2, each subject was allowed to mark somewhere in the segment, corresponding to each term of the questionnaires. Among the subjective symptoms of fatigue, questionnaires 1 to 8 represent indices related to “drowsiness and dullness”, and questionnaires 9 to 15 represent indices related to “difficulty in concentration”.
The distance (mm) from the left end of the segment to the marked point was measured and the difference between before and after the test was calculated. The difference by the value before the test was shown in the percentage calculated; and the average value and standard deviation for each group were calculated. […] Further, it was confirmed that there was no difference between two groups at the start of the test.
Further, the test was carried out under a random assignment and the comparison between the double blind parallel groups was carried out.

## Cl.NCCC[C@H](N)C(=O)O [ornithine, ornithine hydrochloride]
VAS questionnaires 1 to 15, versus placebo group, FIG. 3 and 4
  relieving effect on subjective symptoms of fatigue, all terms (drowsiness and dullness; difficulty in concentration): relieving effect
VAS, unpaired t-test
  "having difficulty thinking": difference between the placebo group and the ornithine group: significant difference
